± gives the uncertainty stated by the source.
Assay: TIMS collision cross section in N2 (TIMS CCS N2); higher = larger gas-phase ion size
Conditions: drift gas: N2 (99.4% N2, 0.6% O2), calibration: Stow et al. 2017 values for Agilent ESI-L Low Concentration Tune Mix, ionization: negative ESI
Procedure: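 Authentic plant natural product standards (10-50 ppm in 80% methanol) were analysed by UHPLC (BEH C18, 60 °C) coupled to a Bruker timsTOF Pro in negative ESI with N2 drift gas. TIMS collision cross sections were computed from mobility peak apices after calibration with Agilent Tune Mix using Stow et al. reference values. Values are the average of triplicate runs on different days, reported per annotated ion species (deprotonated ion, adducts, dimer, oxidized ion).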

SMILES | TIMS collision cross section in N2 (ion species: [M-H]-) [Å²] | TIMS collision cross section in N2 (ion species: [2M-H]-) [Å²] | TIMS collision cross section in N2 (ion species: [M-3H]-) [Å²] | TIMS collision cross section in N2 (ion species: [M-H+Na+HCO2H]-) [Å²]
Oc1cc(O)c2c(c1)OC(c1ccc(O)c(O)c1)C(O)C2 (single isomer, unassigned; (+)) [(+)-Catechin] | 157.43 ± 0.095 | – | – | –
O=C(/C=C/c1ccccc1)c1ccc(O)cc1O [2',4'-Dihydroxychalcone] | 158.57 ± 0.14 | – | – | –
COc1ccc(C(=O)/C=C/c2ccccc2)c(O)c1 [2'-Hydroxy-4'-methoxychalcone] | 163.91 ± 0.055 | – | – | –
COc1ccc(C=CC(=O)c2ccccc2O)cc1 [2'-Hydroxy-4-methoxychalcone] | 164.38 ± 0.046 | – | – | –
O=c1cc(-c2ccccc2O)oc2ccccc12 [2'-Hydroxyflavone] | 149.95 ± 0.12 | – | – | –
O=c1c(-c2ccc(O)c(O)c2)coc2cc(O)ccc12 [3',4',7-Trihydroxyisoflavone] | 161.78 ± 0.026 | 217.7 ± 0.21 | 155.92 ± 0.067 | –
COc1ccc(C2CC(=O)c3ccc(O)cc3O2)cc1OC (stereo not given) [3',4'-Dimethoxy-7-hydroxyflavanone] | 180.72 ± 0.067 | 241.38 ± 0.035 | – | –
O=c1cc(-c2cccc(O)c2)oc2ccccc12 [3'-Hydroxyflavone] | 154.89 ± 0.41 | 218.5 ± 0.57 | – | –
COc1ccc(-c2cc3ccc(O)cc3oc2=O)cc1OC [3(3',4'-Dimethoxyphenyl)-7-hydroxycoumarin] | 172.02 ± 0.17 | 276.72 ± 0.47 | – | –
O=c1c(O)c(-c2cccc(O)c2O)oc2ccc(O)cc12 [3,6,2',3'-Tetrahydroxyflavone] | 161.7 ± 0.14 | – | 161.13 ± 0.17 | –
O=c1c(O)c(-c2ccc(O)cc2O)oc2ccc(O)cc12 [3,6,2',4'-Tetrahydroxyflavone] | 161.99 ± 0.064 | – | – | 183.33 ± 0.05
O=c1c(O)c(-c2cc(O)c(O)c(O)c2)oc2cc(O)ccc12 [3,7,3',4',5'-Pentrahydroxyflavone (robinetin)] | 164.55 ± 0.2 | – | 160.55 ± 0.095 | –
O=C1c2ccc(O)cc2O[C@H](c2ccc(O)c(O)c2)[C@H]1O [3,7,3',4'-Tetrahydroxyflavanone (fustin)] | 154.57 ± 0.12 | – | 160.22 ± 0.11 | –
CC1(C)CCC2(C(=O)OC3OC(CO)C(O)C(O)C3O)CCC3(C)C(=CCC4C5(C)CC(O)C(OC6OC(CO)C(O)C(O)C6O)C(C)(C(=O)O)C5CCC43C)C2C1 (stereo not given) [3-Glc, 28-Glc medicagenic acid] | 300.86 ± 0.71 | – | – | –
O=c1c(O)c(-c2ccccc2)oc2ccccc12 [3-Hydroxyflavone] | 152.04 ± 0.28 | – | – | 172.34 ± 0.36
O=c1cc(-c2ccc(O)cc2)oc2ccccc12 [4'-Hydroxyflavone] | 151.91 ± 0.13 | – | – | –
COc1cc(OC)c(C(=O)C=Cc2ccc(O)cc2)c(OC)c1 [4-Hydroxy-2',4',6'-trimethoxychalcone (flavokawain A)] | 182.42 ± 0.24 | – | – | –
O=c1cc(-c2ccc(O)c(O)c2)oc2cccc(O)c12 [5,3',4'-Trihydroxyflavone] | 156.4 ± 0.18 | 244.46 ± 0.1 | – | –
COc1ccc(C2CC(=O)c3c(ccc(O)c3O)O2)cc1OC (stereo not given) [5,6-dihydroxy-3',4'-dimethoxy-flavanone] | 176.56 ± 0.17 | – | 179.11 ± 0.078 | 192.04 ± 0.13
COc1cc(-c2cc(=O)c3c(O)c(OC)c(O)cc3o2)cc(OC)c1O [5,7,4'-trihydroxy-6,3',5'-trimethoxyflavone] | 183.59 ± 0.17 | – | – | 202.32 ± 0.32
COc1cc(OC)c2c(c1)OC(c1ccc(O)cc1)CC2=O (stereo not given) [5,7-DIMETHOXY-4'-HYDROXYFLAVANONE] | 174.1 ± 0.31 | – | – | –
COc1ccccc1-c1cc(=O)c2c(O)cc(O)cc2o1 [5,7-Dihydroxy-2'-methoxyflavone] | 167.34 ± 0.07 | 238.49 ± 0.23 | – | –

SMILES | TIMS collision cross section in N2 (ion species: [M-H]-) [Å²] | TIMS collision cross section in N2 (ion species: [2M-H]-) [Å²] | TIMS collision cross section in N2 (ion species: [M-3H]-) [Å²] | TIMS collision cross section in N2 (ion species: [M-H+Na+HCO2H]-) [Å²]
COc1ccc(-c2cc(=O)c3c(O)cc(O)cc3o2)cc1 [5,7-Dihydroxy-4'-methoxyflavone] | 170.87 ± 0.1 | – | 165.19 ± 0.13 | –
COc1ccc(C2CC(=O)c3c(O)cc(O)cc3O2)cc1OC (stereo not given) [5,7-dihydroxy-3',4'-dimethoxy-flavanone] | 175.95 ± 0.1 | 238.03 ± 0.5 | – | 195.74 ± 0.19
O=C1CC(c2ccccc2)Oc2c(O)ccc(O)c21 (stereo not given) [5,8-Dihydroxyflavanone] | 158.38 ± 0.01 | – | – | –
COc1ccc(C2CC(=O)c3c(O)cccc3O2)cc1OC (stereo not given) [5-Hydroxy-3',4'-dimethoxyflavanone] | 174.21 ± 0.21 | – | – | 187.65 ± 0.61
COc1cc(/C=C/C(=O)O)cc(O)c1O [5-Hydroxyferulic acid] | 141.26 ± 0.044 | – | – | –
O=c1cc(-c2ccccc2)oc2cccc(O)c12 [5-Hydroxyflavone] | 156 ± 0.14 | – | – | 173.98 ± 0.31
O=C1CC(c2ccc(O)c(O)c2)Oc2cc(O)c(O)cc21 (stereo not given) [6,7,3',4'-Tetrahydroxyflavanone] | 167.53 ± 0.27 | – | 161.92 ± 0.36 | –
O=c1c(-c2ccc(O)cc2)coc2cc(O)c(O)cc12 [6,7,4'-Trihydroxyisoflavone] | 159.49 ± 0.16 | 249.43 ± 0.37 | – | –
CC(C)=CCc1c(O)c(CC=C(C)C)c2c(c1O)C(=O)C[C@@H](c1ccc(O)cc1)O2 [6,8-diprenylnaringenin] | 206.73 ± 0.66 | – | – | –
O=C1CC(c2ccccc2)Oc2ccc(O)cc21 (stereo not given) [6-Hydroxyflavanone] | 156.92 ± 0.15 | 244.54 ± 0.11 | – | –
O=c1cc(-c2ccccc2)oc2ccc(O)cc12 [6-Hydroxyflavone] | 155.92 ± 0.15 | 239.79 ± 0.056 | – | –
CC(C)=CCC/C(C)=C/Cc1c(O)cc2c(c1O)C(=O)C[C@@H](c1ccc(O)cc1)O2 [6-geranylnaringenin] | 204.76 ± 0.16 | 275.87 ± 0.17 | – | –
CC(C)=CCc1c(O)cc2c(c1O)C(=O)C[C@@H](c1ccc(O)cc1)O2 [6-prenylnaringenin] | 183.64 ± 0.61 | 235.03 ± 0.42 | – | –
O=c1cc(-c2cc(O)c(O)c(O)c2)oc2cc(O)ccc12 [7,3',4',5'-Tetrahydroxyflavone] | 161.92 ± 0.042 | – | – | –
O=c1c(-c2ccc(O)c(O)c2)coc2cc(O)ccc12 [7,3',4'-TRIHYDROXYISOFLAVONE] | 162.61 ± 0.21 | – | 156.67 ± 0.24 | –
COc1ccc(-c2oc3cc(OC)ccc3c(=O)c2O)cc1 [7,4'-Dimethoxy-3-hydroxyflavone] | – | – | – | 193.67 ± 0.15
COc1ccc(C2CC(=O)c3c(O)cc(OC)cc3O2)cc1 (stereo not given) [7,4'-Dimethoxy-5-hydroxyflavanone] | 175.55 ± 0.29 | – | – | 194.46 ± 0.47
O=c1cc(-c2ccc(O)cc2)oc2cc(O)ccc12 [7,4'-dihydroxyflavone] | 157.01 ± 0.16 | 221.31 ± 0.038 | – | –
COc1cccc(-c2cc(=O)c3ccc(O)cc3o2)c1 [7-Hydroxy-3'-methoxyflavone] | 165.22 ± 0.11 | 229.62 ± 0.17 | – | –
COc1ccc(-c2cc(=O)c3ccc(O)cc3o2)cc1 [7-Hydroxy-4'-methoxyflavone] | 165.03 ± 0.085 | 231.78 ± 0.34 | – | –
O=c1cc(-c2ccccc2)oc2cc(O)ccc12 [7-Hydroxyflavone] | 153.67 ± 0.056 | 228.17 ± 0.39 | – | –
